Earlier results as cited in patent publication US20220265684A1, “COMPOSITIONS AND METHODS FOR TREATING ULCERATIVE COLITIS” (9 METERS BIOPHARMA, INC., priority 2021, published 2022).

Settings: after administration of 100 mg (1 tablet); Actarit PI

## Nc1ccc(CC(=O)O)cc1 [4-APAA, 4-aminophenylacetic acid]
  AUC0-∞: 4.56 µg·h/mL
  Cmax: 2.24 µg/mL
